Assay results: US20180290138A1, “MICROFLUIDIC CHIP FOR SCREENING ANTICANCER DRUG RESISTANT CELLS AND USE THEREOF” (RESEARCH & BUSINESS FOUNDATION SUNGKYUNKWAN UNIVERSITY, priority 2015, published 2018)

Assays:
U87 cells = experiment: Evaluation of anticancer drug resistance: cell viability with doxorubicin, U87 cells (WT cells); type: cell-based; conditions: Homo sapiens, U-87 MG; U87 cells (WT cells) cultured in general medium; 72 h culture; living cell count; non-linear regression
Description: (§1) 3,000 cells (U87 and U87-DG cells) were seeded into a 96-well plate in 200 μl of an MEM medium containing doxorubicin at various concentrations (0, 0.005, 0.01, 0.02, 0.05, 0.1, 0.2, 0.5, 0.75, and 1 μM). After seventy-two hours of culturing, the number of living cells in each well was calculated. Cell viability was calculated by dividing the number of living cells in a doxorubicin-contained well by the number of living cells in a doxorubicin-free well. After plotting a concentration of doxorubicin with respect to cell viability, IC50 was estimated through non-linear regression analysis using Graphpad Prism (GraphPad Software, Inc., La Jolla, Calif. USA).

U87-DG cells = experiment: Evaluation of anticancer drug resistance: cell viability with doxorubicin, U87-DG cells (chip cells); type: cell-based; conditions: Homo sapiens; U87-DG cells (chip cells) cultured with Death galaxy chip under doxorubicin gradient; 72 h culture; living cell count; non-linear regression
Description: In the Death galaxy chip, for 7 days, U87 cells derived from human primary glioblastoma were exposed to an anticancer drug such as doxorubicin according to a concentration gradient, and a hexagonal microchamber array was removed from a surface of the living cells (U87-DG cells)-attached cell culture plate. The inventors trypsinized the U87-DG cells to analyze the characteristic of phenotypes thereof, collected the cells, and transferred them to a new culture plate to culture the cells in a normal growth medium (MEM) for one week.
as §1

IC50 (U87 cells): 0.05 µM
SMILES: COc1cccc2c1C(=O)c1c(O)c3c(c(O)c1C2=O)C[C@@](O)(C(=O)CO)C[C@@H]3O[C@H]1C[C@H](N)[C@H](O)[C@H](C)O1 [doxorubicin]
IC50 (U87-DG cells): 1.47 µM
